Measured values reported in BindingDB's records for doi:10.1074/jbc.M110.181594 (Institut Pasteur, 2010).

Biological target: T1, 2'-deoxynucleoside 5'-phosphate N-hydrolase 1 (Rattus norvegicus, UniProt O35820)
T1 sequence (O35820 whole entry): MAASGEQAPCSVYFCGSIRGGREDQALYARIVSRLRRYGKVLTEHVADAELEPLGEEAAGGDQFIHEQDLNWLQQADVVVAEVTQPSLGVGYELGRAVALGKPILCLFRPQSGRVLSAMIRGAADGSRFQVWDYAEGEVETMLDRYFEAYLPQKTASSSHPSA
Test: Inhibition Assay
From the text: Rcl inhibition by nucleotides.

Q: How did the Ki turn out when Nc1ncnc2c1ncn2C1OC(COP(O)(O)=S)C(O)C1O (centres undefined) [5'-AMPS] was run?
A: 14 µM

Q: With Nc1nc(=O)c2ncn(COCCOP(=O)(O)O)c2[nH]1 [Acyclovir 5'-monophosphate] as the molecule, how does the Ki read?
A: 57 µM

Q: With O=c1[nH]c(=O)c2ncn(C3OC(COP(=O)(O)O)C(O)C3O)c2[nH]1 (centres undefined) [XMP] as the molecule, how does the Ki read?
A: 54 µM

Q: With NC(=O)c1ncn(C2OC(COP(=O)(O)O)C(O)C2O)c1N (centres undefined) [[5-(5-amino-4-carbamoyl-1H-imidazol-1-yl)-3,4-dihydroxyoxolan-2-yl]methyl phosphate] as the molecule, how does the Ki read?
A: 52 µM
